# Assay results: PMC10177496, “An Isoxazoloquinone Derivative Inhibits Tumor Growth by Targeting STAT3 and Triggering Its Ubiquitin-Dependent Degradation” (Cancers, 2023)
# Biological target: STAT3 (Homo sapiens, UniProt P40763)
# Test: biotin pull-down (MDA-MB-231), LC/MS identification and STAT3 Western blot
# Format: cell-based
# Description: biotin pull-down (MDA-MB-231), LC/MS identification and STAT3 Western blot on STAT3 | identified the proteins that bind to biotin–ZSW specifically using LC/MS. We determined that STAT3 was specifically stripped
# STAT3, sequence (P40763 2-770): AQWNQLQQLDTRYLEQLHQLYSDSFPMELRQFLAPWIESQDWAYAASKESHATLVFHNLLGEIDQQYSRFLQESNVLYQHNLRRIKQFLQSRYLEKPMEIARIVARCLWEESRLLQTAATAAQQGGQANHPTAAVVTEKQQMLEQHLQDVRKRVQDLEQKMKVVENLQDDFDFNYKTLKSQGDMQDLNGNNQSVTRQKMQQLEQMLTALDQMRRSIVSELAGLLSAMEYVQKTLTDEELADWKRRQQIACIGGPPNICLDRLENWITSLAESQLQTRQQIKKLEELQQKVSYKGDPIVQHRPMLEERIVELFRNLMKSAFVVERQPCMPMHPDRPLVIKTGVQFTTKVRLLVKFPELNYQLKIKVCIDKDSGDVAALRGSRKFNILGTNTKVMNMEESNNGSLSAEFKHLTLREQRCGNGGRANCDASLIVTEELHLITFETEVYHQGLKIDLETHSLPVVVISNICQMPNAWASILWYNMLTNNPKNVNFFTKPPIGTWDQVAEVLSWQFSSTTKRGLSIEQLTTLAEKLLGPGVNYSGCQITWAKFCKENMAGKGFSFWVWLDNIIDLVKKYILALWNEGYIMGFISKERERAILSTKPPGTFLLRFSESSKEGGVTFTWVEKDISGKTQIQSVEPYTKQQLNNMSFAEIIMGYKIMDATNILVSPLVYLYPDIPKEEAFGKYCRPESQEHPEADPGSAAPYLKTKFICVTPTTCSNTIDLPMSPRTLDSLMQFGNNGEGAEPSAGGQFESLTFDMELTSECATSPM
structure (smiles),measurement,value
COc1cc(-c2noc3c2C(=O)c2cccnc2C3=O)cc(OC)c1OCCCOC(=O)CCCCC1SCC2NC(=O)NC21 (stereo not shown) [biotin–ZSW],"biotin pull-down (MDA-MB-231), LC/MS identification and STAT3 Western blot",identified the proteins that bind to biotin–ZSW specifically using LC/MS. We determined that STAT3 was specifically stripped
